Measurements published in ChEMBL document CHEMBL4177744, “Discovery of novel scaffolds for γ-secretase modulators without an arylimidazole moiety” (Bioorg Med Chem, 2018).

Experiments:
CYP3A4 [1] = molecular target: T1, CYP3A4 (Homo sapiens, UniProt P08684); experiment: Inhibition of CYP3A4 in human liver microsomes assessed as residual activity at 5 uM using midazolam as substrate preincubated for 30 mins followed by substrate addition measured after 20 mins in presence of NADPH by LC-MS/MS analysis relative to control; format: ADME; conditions: probe midazolam, read-out: Activity
T1 sequence (P08684 whole entry): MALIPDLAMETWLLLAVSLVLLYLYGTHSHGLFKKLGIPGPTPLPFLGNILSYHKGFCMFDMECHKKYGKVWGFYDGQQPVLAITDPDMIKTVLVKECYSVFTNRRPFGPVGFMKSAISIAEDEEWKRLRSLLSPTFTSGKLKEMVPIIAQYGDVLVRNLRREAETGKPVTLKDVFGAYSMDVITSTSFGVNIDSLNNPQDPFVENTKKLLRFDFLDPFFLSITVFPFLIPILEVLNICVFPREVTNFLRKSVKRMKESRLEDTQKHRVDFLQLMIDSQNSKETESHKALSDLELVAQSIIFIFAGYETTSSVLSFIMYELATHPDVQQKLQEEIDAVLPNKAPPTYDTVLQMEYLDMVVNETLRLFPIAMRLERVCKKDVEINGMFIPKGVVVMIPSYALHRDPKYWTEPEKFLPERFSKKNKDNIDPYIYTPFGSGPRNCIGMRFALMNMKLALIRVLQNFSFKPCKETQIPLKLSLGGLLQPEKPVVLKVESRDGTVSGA

CYP3A4 [2] = molecular target: T1, CYP3A4; experiment: Inhibition of CYP3A4 in human liver microsomes assessed as residual activity at 5 uM using midazolam as substrate after 20 mins in presence of NADPH by LC-MS/MS analysis relative to control; format: ADME; conditions: probe midazolam, read-out: Activity
Gamma-secretase = experiment: Modulatory activity against gamma-secretase in human SK-N-BE(2) cells assessed as reduction in amyloid beta 42 production after 6 hrs by sandwich ELISA; format: cell-based
[3] = Intrinsic clearance in CD-1 mouse liver microsomes assessed per mg protein at 0.2 uM by LC-MS/MS analysis; format: ADME, microsome; conditions: read-out: CLH
[4] = Brain to plasma partition coefficient, Kp in ddY mouse at 30 mg/kg, ip after 1 hr by LC-MS/MS analysis; format: ADME, organism-based
[5] = Drug uptake in ddY mouse brain at 30 mg/kg, ip after 1 hr by LC-MS/MS analysis; format: ADME, organism-based; conditions: in vivo
[6] = […], Kp in ddY mouse brain at 30 mg/kg, ip after 3 hrs by LC-MS/MS analysis; format: ADME, organism-based; conditions: BLD = below limit of detection
[7] = Drug uptake in ddY mouse plasma at 30 mg/kg, ip after 1 hr by LC-MS/MS analysis; format: ADME, organism-based
[8] = Drug uptake in ddY mouse plasma at 30 mg/kg, ip after 3 hrs by LC-MS/MS analysis; format: ADME, organism-based
[9] = Drug uptake in ddY mouse brain at 30 mg/kg, po after 1 hr by LC-MS/MS analysis; format: ADME, organism-based; conditions: in vivo
[10] = Drug uptake in ddY mouse plasma at 30 mg/kg, po after 3 hrs by LC-MS/MS analysis; format: ADME, organism-based
[11] = Brain to plasma partition coefficient, Kp in ddY mouse at 30 mg/kg, po after 1 hr by LC-MS/MS analysis; format: ADME, organism-based
[12] = Drug uptake in ddY mouse brain at 30 mg/kg, po after 3 hrs by LC-MS/MS analysis; format: ADME, organism-based; conditions: in vivo
[13] = Brain to plasma partition coefficient, Kp in ddY mouse at 30 mg/kg, po after 3 hrs by LC-MS/MS analysis; format: ADME, organism-based
[14] = Drug uptake in ddY mouse plasma at 30 mg/kg, po after 1 hr by LC-MS/MS analysis; format: ADME, organism-based

SMILES | IC50 (Gamma-secretase) [µM] | microsomal CLint at 0.2 µM [3] [µL/min/mg] | other results
COc1cc(/C=C2\CCCN([C@@H](C)c3ccc(F)cc3)C2=O)ccc1-n1cnc(C)c1 | – | – | activity at 20 min, 5 µM (CYP3A4 [1]): 29%; activity at 20 min, 5 µM (CYP3A4 [2]): 40%
CCCCN1CCC(c2c(C)nc3c(OCc4ccccc4C)cccn23)CC1 | 8.7 | > 1000 | –
Cc1ccccc1COc1cccn2c(C3CCN(C)CC3)c(C)nc12 | 9.8 | – | –
CCNC(=O)c1ccc(-c2c(C)nc3c(OCc4ccccc4C)cccn23)cc1 | 2.3 | – | –
CCCCc1ccc(-c2c(C)nc3c(OCc4ccccc4C)cccn23)cc1 | > 50 | 628 | –
CCOC(=O)N1CCC(c2c(C)nc3c(OCc4ccccc4C)cccn23)CC1 | 1.3 | – | –
CCN1Cc2cc(-c3c(C)nc4c(OCc5ccccc5C)cccn34)ccc2C1=O.Cl | 0.39 | 611 | Drug uptake [9]: 1.9 nmol/g; concentration at 3 h [10]: 960 nM; Kp at 1 h [11]: 0.72; activity at 20 min, 5 µM (CYP3A4 [1]): 87%; Drug uptake [12]: 0.69 nmol/g; Kp at 3 h [13]: 0.72; activity at 20 min, 5 µM (CYP3A4 [2]): 85%; concentration at 1 h [14]: 2500 nM
CCN(C)C(=O)c1ccc(-c2c(C)nc3c(OCc4ccccc4C)cccn23)cc1 | > 10 | – | –

Continued, in another order:

IC50 (Gamma-secretase) [µM] | microsomal CLint at 0.2 µM [3] [µL/min/mg] | SMILES | other results
> 50 | – | Cc1nc2c(OCc3ccccc3)cccn2c1CN(C)CCN(C)C | –
5.8 | – | Cc1nc2c(OCc3ccccc3)cccn2c1C1CCN(C2CCCCC2)CC1 | –
0.69 | > 1000 | CCCC(=O)N1CCC(c2c(C)nc3c(OCc4ccccc4C)cccn23)CC1.Cl | Kp at 1 h [4]: 1; Drug uptake [5]: 0.71 nmol/g; Kp [6]: Bld; concentration at 1 h [7]: 700 nM; concentration at 3 h [8]: 9.4 nM
1.8 | – | CCOC(=O)c1ccc(-c2c(C)nc3c(OCc4ccccc4C)cccn23)cc1 | –
7.1 | – | Cc1ccccc1COc1cccn2c(-c3ccncc3)c(C)nc12 | –
